Data reported in paper PMC8815882, “Screening the pandemic response box identified benzimidazole carbamates, Olorofim and ravuconazole as promising drug candidates for the treatment of eumycetoma” (PLoS Neglected Tropical Diseases, 2022).
Read-outs that look alike come from different tables or passages of the source.

Tested on: M. mycetomatis genome strain MM55
Assay: CLSI M38-A2 based in vitro susceptibility screening (XTT or resazurin), growth at fixed concentration
Format: cell-based, Madurella mycetomatis
Details: Madurella mycetomatis
[1] = 25 uM, mean, read-out: Percentage survival at 25um, 25 uM mean
[2] = 25 uM, replicate A, read-out: Percentage survival at 25um, 25 um A
[3] = 25 uM, replicate B, read-out: Percentage survival at 25um, 25 uM B
[4] = 25 uM, replicate C, read-out: Percentage survival at 25um, 25 uM C
[5] = mean, read-out: Percentage survival at 100um, 100 uM mean
[6] = replicate (first column), read-out: Percentage survival at 100um, 100 uM A
[7] = replicate (second column), read-out: Percentage survival at 100um, 100 uM A
[8] = replicate (third column), read-out: Percentage survival at 100um, 100 uM A
[9] = 25 uM, mean of three replicates, read-out: Percentage survival at 25um, 25 uM mean
[10] = mean of three replicates, read-out: Percentage survival at 100um, 100 uM mean
[11] = replicate 1, read-out: Percentage survival at 100um, 100 uM A (first replicate column)
[12] = replicate 2, read-out: Percentage survival at 100um, 100 uM A (second replicate column)
[13] = replicate 3, read-out: Percentage survival at 100um, 100 uM A (third replicate column)
[14] = 25 uM, mean of replicates, read-out: Percentage survival at 25um, 25 uM mean
[15] = mean of replicates, read-out: Percentage survival at 100um, 100 uM mean
[16] = replicate 1, read-out: Percentage survival at 100um, 100 uM A
[17] = replicate 2, read-out: Percentage survival at 100um, 100 uM A
[18] = replicate 3, read-out: Percentage survival at 100um, 100 uM A
[19] = 25 uM, mean of three, M. mycetomatis MM55, read-out: Percentage survival at 25um, 25 uM mean
[20] = 25 uM, replicate A, M. mycetomatis MM55, read-out: Percentage survival at 25um, 25 um A
[21] = 25 uM, replicate B, M. mycetomatis MM55, read-out: Percentage survival at 25um, 25 uM B
[22] = 25 uM, replicate C, M. mycetomatis MM55, read-out: Percentage survival at 25um, 25 uM C
[23] = mean of three, M. mycetomatis MM55, read-out: Percentage survival at 100um, 100 uM mean
[24] = replicate 1, M. mycetomatis MM55, read-out: Percentage survival at 100um, 100 uM A (first replicate column)
[25] = replicate 2, M. mycetomatis MM55, read-out: Percentage survival at 100um, 100 uM A (second replicate column)
[26] = replicate 3, M. mycetomatis MM55, read-out: Percentage survival at 100um, 100 uM A (third replicate column)

Fc1ccc2c(/C=C/c3cccnc3)c[nH]c2c1 [MMV1578889]
activity at 25 µM [1]: 76.9%
activity at 25 µM [2]: 86.3%
activity at 25 µM [3]: 56.6%
activity at 25 µM [4]: 87.7%
activity at 100 µM [5]: 58.2%
activity at 100 µM [6]: 83.4%
activity at 100 µM [7]: 19.8%
activity at 100 µM [8]: 71.5%

O=C(Cn1cnc2ccccc2c1=O)Nc1ccccc1 [MMV1578891]
activity at 25 µM [9]: 80.3%
activity at 25 µM [2]: 84%
activity at 25 µM [3]: 82.2%
activity at 25 µM [4]: 74.7%
activity at 100 µM [10]: 83.9%
activity at 100 µM [11]: 90.8%
Percent fungal survival at 100 µM [12]: 79.4%
activity at 100 µM [13]: 81.6%

CCOC(=O)N1CCN(c2ccc(Cl)cc2)CC1 [MMV1578898]
activity at 25 µM [14]: 83.5%
activity at 25 µM [2]: 91.8%
activity at 25 µM [3]: 91.8%
activity at 25 µM [4]: 66.9%
activity at 100 µM [15]: 47.7%
activity at 100 µM [16]: 38.1%
activity at 100 µM [17]: 63.1%
activity at 100 µM [18]: 42%

CCCC(=O)OCCc1ccccc1 [MMV1578899]
activity at 25 µM [19]: 85.3%
activity at 25 µM [20]: 87.9%
activity at 25 µM [21]: 88.2%
activity at 25 µM [22]: 79.8%
activity at 100 µM [23]: 87.4%
activity at 100 µM [24]: 89.3%
Percent fungal survival at 100 µM [25]: 88.3%
activity at 100 µM [26]: 84.5%

CC(Oc1ccc(Cl)cc1Cl)C(=O)NCc1ccc2c(c1)OCO2 (stereo not drawn) [MMV1578925]
activity at 25 µM [1]: 48.3%
activity at 25 µM [2]: 53.9%
activity at 25 µM [3]: 36.1%
activity at 25 µM [4]: 54.9%
activity at 100 µM [5]: 70.2%
activity at 100 µM [6]: 65.3%
activity at 100 µM [7]: 69%
activity at 100 µM [8]: 76.3%

C=C(C)n1c(=O)n(Cc2ccccc2C)c2ccccc21 [MMV1579354]
activity at 25 µM [19]: 79.6%
activity at 25 µM [20]: 93.1%
activity at 25 µM [21]: 79.3%
activity at 25 µM [22]: 66.5%
activity at 100 µM [23]: 9.54%
activity at 100 µM [24]: 2.4%
Percent fungal survival at 100 µM [25]: 21.4%
activity at 100 µM [26]: 4.84%

O=c1cc(OCc2ccccc2)ccn1Cc1ccccc1 [MMV1579775]
activity at 25 µM [19]: 71.3%
activity at 25 µM [20]: 65.3%
activity at 25 µM [21]: 61.6%
activity at 25 µM [22]: 87.1%
activity at 100 µM [23]: 63.4%
activity at 100 µM [24]: 61.9%
Percent fungal survival at 100 µM [25]: 72.8%
activity at 100 µM [26]: 55.4%

NS(=O)(=O)c1ccc(NC(=O)NC(c2ccccc2)c2ccccc2)cc1 [MMV1579776]
activity at 25 µM [20]: 95.1%
activity at 100 µM [23]: 97%
activity at 100 µM [24]: 103%
activity at 100 µM [25]: 98.7%
activity at 100 µM [26]: 89%
activity at 25 µM (read-out: Percentage survival at 25um, 25 uM B): 101%
activity at 25 µM (read-out: Percentage survival at 25um, 25 uM C): 86.7%
activity at 25 µM (read-out: Percentage survival at 25um, 25 uM mean): 94.2%

O=[N+]([O-])c1cn(Cc2nc(O)nc(O)c2Br)cn1 [MMV1579777]
activity at 25 µM [14]: 94.1%
activity at 25 µM [2]: 98.9%
activity at 25 µM [3]: 96.8%
activity at 25 µM [4]: 86.6%
activity at 100 µM [15]: 87.1%
activity at 100 µM [16]: 96.7%
activity at 100 µM [17]: 83.9%
activity at 100 µM [18]: 80.7%

C[C@H](NC(CC(=O)c1ccccc1C(F)(F)F)C(=O)O)c1ccccc1 (stereo partly drawn) [MMV1579778]
activity at 25 µM [9]: 93.5%
activity at 25 µM [2]: 98.1%
activity at 25 µM [3]: 92%
activity at 25 µM [4]: 90.5%
activity at 100 µM [10]: 87.3%
activity at 100 µM [11]: 91.1%
Percent fungal survival at 100 µM [12]: 82.8%
activity at 100 µM [13]: 88.1%

CC(=O)Nc1cc(NS(=O)(=O)c2ccc(Cl)cc2)cc2c(Cl)n[nH]c12 [MMV1579779]
activity at 25 µM [14]: 83.8%
activity at 25 µM [2]: 80.2%
activity at 25 µM [3]: 89.2%
activity at 25 µM [4]: 82.1%
activity at 100 µM [15]: 82.2%
activity at 100 µM [16]: 78.5%
activity at 100 µM [17]: 74.6%
activity at 100 µM [18]: 93.4%

CC(C)n1cnc2c(NCc3ccccc3)nc(NCc3ccccc3)nc21 [MMV1579780]
activity at 25 µM [14]: 62.7%
activity at 25 µM [2]: 64.2%
activity at 25 µM [3]: 61.7%
activity at 25 µM [4]: 62%
activity at 100 µM [15]: 61%
activity at 100 µM [16]: 60.4%
activity at 100 µM [17]: 63.1%
activity at 100 µM [18]: 59.6%
